Experimental data as given in US20050020519A1, “Modulation of insulin-regulated aminopeptidase (irap)/angiotensin iv (at4) receptor activity” (priority 2001, published 2005).
Read-outs that look alike come from different tables or passages of the source. Where a SMILES comes first, the peptide text is derived from it.

Experiments:
[1] = conditions similar to the DNA synthesis experiments
[2] = test system: rat hippocampal slices; test: Potassium-evoked ^3H-choline release from rat hippocampal slices; assay type: cell-based; conditions: at 10^−7M
Procedure: To determine the effect of IRAP inhibitors an acetylcholine release for rat hippocampal slices in vitro, rats were anaesthetized with sodium pentobarbitone, decapitated and the brain rapidly extracted and put on ice. The two sides of the hippocampus were then dissected, and stored in Krebs buffer on ice. The tissues were sectioned into 400 μm slices using a McI1wain slicer, and incubated with 10 μM of ^3H-choline in Krebs buffer for 20 min at 37° C. Following the incubation, the sections were transferred to Brandel superfusion chambers filled with carbogenated Krebs buffer, pH7.0 containing […] hemicholinium HC-3 to prevent choline reuptake. The slices were washed for 60 min at 37° C. with Krebs buffer at a flow rate of 500 μl/min. Superfusate samples were collected at 5 min intervals for the duration of the experiment. After a stable baseline was established, the hippocampal slices were depolarised by the addition of 30 mM KCl to the Krebs buffer and infused for 4 min (stimulation period S1). The tissue was then allowed to recover for 25 min before the next stimulation period (S2). To test the effect of […] […] Fractional ^3H-choline release, expressed as a ratio of S2/S1, was then calculated for each of the different peptides at the different doses.

[3] = test system: NG108-15 cells; test: ^3H-thymidine incorporation in NG108-15 cells; assay type: cell-based, rat-mouse hybrid
Procedure: (§1) NG108-15 and SK-N-MC cells were cultured in DMEM supplemented with 10% heat-inactivated FCS, 2% HAT supplement, and 100 U/ml penicillin/streptomycin. Cells were routinely used between passages 20 and 30.
(§2) Cells were plated at a density of 3×10^4 cells/well in 24 well Falcon plates that had been coated with 0.1 mg/ml poly-L-lysine hydrobromide. The cells were allowed to adhere overnight, and then serum deprived for 48 h before being treated with […] (SEQ ID NO:2) and/or Ang IV (10^−10 to 10^−6 M) for 24 h in medium with or without serum. Five hours before the end of the experiment 1 μCi of ^3H-thymidine was added to each well. At the completion of the incubation, cells were washed twice with 1 ml of PBS at 4° C., followed by 5% trichloroacetic acid at 4° C. for 30 min, which was aspirated before solubilizing the cells in 1 ml 0.25 M NaOH and 0.1% SDS for 30 min at 37° C. Samples were then collected into 5 ml of Ready Value scintillation fluid and ^3H measured in a liquid scintillation counter.

[4] = test system: SK-N-MC cells; test: [^3H]-thymidine uptake in SK-N-MC cells; assay type: cell-based; conditions: Ang IV 10^−10-10^−7 M; LVVYPWTQRF 10^−10-10^−6 M
Procedure: as §1, §2

[5] = test system: rats; conditions: intracerebroventricular dose 1 nmol; cited from earlier work
[6] = test system: 3T3L1 cells; test: 2-deoxyglucose uptake in differentiated 3T3L1 adipocytes; conditions: for basal glucose uptake: no insulin, untreated 3.3±0.67
Procedure: The effect of IRAP inhibitors on the regulation of glucose uptake was determined in 3T3L1 cells. 3T3L1 fibroblasts were differentiated by the addition of DMEM containing 5% fetal calf serum, 4 μg/ml insulin, 0.25 mM dexamethasone and 0.5 mM 3-isobutyl-1-methyl-xanthine. […] The reaction was stopped after 10 min by washing the cells in PBS. The cells were then solubilized in 0.5 N NaOH and counted.

[7] = test system: ERK1/2 phosphorylation; test: ERK1/2 phosphorylation in rat hippocampal slices (Western blot); assay type: cell-based; conditions: 10^−8M, 30 min
Procedure: The potential of IRAP/AT4 ligands to activate MAPK or CREB was initially investigated on rat hippocampal slices. Rats were killed by decapitation and the hippocampi removed, four hundred μm thick slices cut and incubated in aCSF. […] Slices were then lysed in 200 μl of ice-cold lysis buffer (10 mM Tris-HCl pH 7.5, 50 mM NaCl, 1% triton X-100, 30 mM sodium pyrophosphate, 50 mM NaF, 5 μM ZnCl2, 0.1 mM sodium orthovanadate, 1 mM DTT, 5 nM okadaic acid, 1×Boehringer Protease inhibitor cocktail) and centrifuged at full speed. The lysates were then heated at 95° C. for 10 min in 6×SDS loading buffer and the proteins (30 μg per lane) resolved on 7.5% SDS-poylacrylamide gels. After transfer of proteins to PVDF membranes, blots were probed overnight at 4° C. with anti phospho-p44/42 MAP kinase (Thr202/Tyr204) antibody and detected by chemiluminescence using ECL blotting detection reagents and a Fuji LAS-1000.

[8] = test system: rats; conditions: cited from earlier work
[9] = test system: ERK1/2 phosphorylation
Procedure: The ability of AT4 ligands to stimiuladte MAPK phosphorylation directly was investigated in HEK293 cells transfected with human IRAP. HEK293 cells were transfected with pCI-IRAP or with empty vector, plated on to 12-well plates at a density of 60,000 cells/well and grown in complete medium containing 0.2% fetal calf serum. […] The proteins were then transferred on to nitrocellulose membranes and incubated with phospho-MAPK (p44/42) antibodies and visualised with HRP-conjugated secondary antibody, using the ECL-plus western blot detection system.

[10] = target: T1, human insulin-regulated aminopeptidase (IRAP) / angiotensin IV (AT4) receptor (human, UniProt Q9UIQ6 1-1025); test: cell-based or functional assay
[11] = target: T1, human insulin-regulated aminopeptidase …; test: radioligand displacement of 125I-Nle-Ang IV
[12] = target: T1, human insulin-regulated aminopeptidase …; test: competitive inhibition of L-leucine-β-naphthylamide cleavage by solubilised membranes of IRAP-transfected HEK 293 cells; Ki from IC50=Ki(1+[S]/Km)

T1 sequence (Q9UIQ6 whole entry): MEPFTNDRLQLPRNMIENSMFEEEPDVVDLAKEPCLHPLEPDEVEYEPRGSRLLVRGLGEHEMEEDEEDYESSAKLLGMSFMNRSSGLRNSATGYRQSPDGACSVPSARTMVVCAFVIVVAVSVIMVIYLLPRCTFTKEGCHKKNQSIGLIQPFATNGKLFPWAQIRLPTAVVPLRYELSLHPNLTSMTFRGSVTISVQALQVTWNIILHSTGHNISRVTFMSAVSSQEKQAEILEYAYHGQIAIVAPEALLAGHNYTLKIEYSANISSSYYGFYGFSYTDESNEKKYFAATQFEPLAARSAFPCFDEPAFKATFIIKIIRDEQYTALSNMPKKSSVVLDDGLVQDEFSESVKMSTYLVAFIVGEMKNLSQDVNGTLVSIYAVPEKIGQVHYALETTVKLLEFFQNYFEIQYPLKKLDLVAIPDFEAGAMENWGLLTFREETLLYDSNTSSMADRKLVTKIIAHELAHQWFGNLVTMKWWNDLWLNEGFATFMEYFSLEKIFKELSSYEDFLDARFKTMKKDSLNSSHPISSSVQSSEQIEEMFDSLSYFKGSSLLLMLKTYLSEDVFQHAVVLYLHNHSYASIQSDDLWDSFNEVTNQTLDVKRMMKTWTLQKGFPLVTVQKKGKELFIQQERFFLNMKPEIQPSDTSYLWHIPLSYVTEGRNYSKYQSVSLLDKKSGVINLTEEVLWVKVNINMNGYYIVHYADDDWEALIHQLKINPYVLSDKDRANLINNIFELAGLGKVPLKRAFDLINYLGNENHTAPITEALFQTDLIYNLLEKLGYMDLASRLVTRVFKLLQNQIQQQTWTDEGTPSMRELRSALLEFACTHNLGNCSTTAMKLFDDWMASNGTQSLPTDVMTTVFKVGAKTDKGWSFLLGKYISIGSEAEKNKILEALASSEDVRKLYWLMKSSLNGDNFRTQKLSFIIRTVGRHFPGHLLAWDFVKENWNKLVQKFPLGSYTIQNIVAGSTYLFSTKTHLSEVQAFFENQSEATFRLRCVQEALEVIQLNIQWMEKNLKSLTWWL

CC[C@H](C)[C@H](NC(=O)[C@H](Cc1ccc(O)cc1)NC(=O)[C@@H](N)C(C)C)C(=O)N[C@@H](Cc1cnc[nH]1)C(=O)N1CCC[C@H]1C(=O)N[C@@H](Cc1ccccc1)C(=O)O [Ang IV, VYIHPF]
degradation of the peptide [1]: some degradation | maximum effect on potassium-evoked ^3H-choline release [2]: 150 % of control | stimulation of DNA synthesis ([3]; 10^−10 to 10^−6 M, alone): did not stimulate DNA synthesis | effect on LVVYPWTQRF-stimulated ^3H-thymidine incorporation ([3]; concomitant 10^−6 M Ang IV): completely abolished | increase of [^3H]-thymidine uptake [4]: up to 72 % above control levels | latency in re-entering the dark chamber after an aversive stimulus [5]: increased the latency

CCCC[C@H](N)C(=O)N[C@@H](Cc1ccc(O)cc1)C(=O)N[C@H](C(=O)N[C@@H](Cc1c[nH]cn1)C(=O)N1CCC[C@H]1C(=O)N[C@@H](Cc1ccccc1)C(=O)O)[C@@H](C)CC [Nle^1-Ang IV, Nle′-YIHPF] (HELM PEPTIDE1{[Nle].Y.I.H.P.F}$$$$V2.0; N-terminus and C-terminus assumed)
insulin-stimulated glucose uptake ([6]; 10^−6 M peptide with 0.7 nM insulin): 18.3 ± 2.39 pmol/min/well | insulin-stimulated glucose uptake ([6]; 10^−6 M peptide with 70 nM insulin): 23.02 ± 1.52 pmol/min/well | basal glucose uptake ([6]; 10^−6 M): 7.6±1.21 pmol/min/well | insulin-stimulated glucose uptake ([6]; 10^−7 M peptide with 0.7 nM insulin): 12.2 ± 2.29 pmol/min/well | insulin-stimulated glucose uptake ([6]; 10^−7 M peptide with 70 nM insulin): 22.99 ± 2.8 pmol/min/well | basal glucose uptake ([6]; 10^−7 M): 7.2±1.79 pmol/min/well | increase of basal glucose uptake ([6]; both concentrations (10^−7 and 10^−6 M)): two-fold | ERK1/2 phosphorylation [7]: induced phosphorylation of ERK1/2 | performance in the swim maze task ([8]; chronic infusion (6 days), 0.1 to 0.5 nmol/h, lateral ventricle): enhanced performance | memory deficits induced by scopolamine ([8]; given acutely into the lateral ventricles): reversed the memory deficits | ERK1/2 phosphorylation [9]: induced the phosphorylation of ERK1/2

B1: LVV-hemorphin 7 (LVVYPWTQRF) (peptide)
peptide: LVVYPWTQRF
notes: Globin fragment purified from sheep cerebral cortex; synthetic peptide used in the assays; also called LVV-H7; LV-H7
IC50 inhibition leucine β-naphthylamide [10]: 1.5 µM | IC50 [11]: 0.14 µM | Ki [12]: 0.845 µM
